In PubChem BioAssay (NCI) one finds GI50 and TGI data, which are given here for 39 compounds.

Where “and” joins values, the source holds several entries; their conditions need not be identical. Identical values can stand only once.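 Five compound concentrations were applied to cells in 96-well plates for 48 hours; endpoints were derived by simple linear interpolation of the resulting dose-response curve. GI50: concentration for 50% inhibition of growth. TGI: total growth inhibition.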

The subject of this test is MDA-MB-468 breast. Description: NCI anticancer screen, dose series, 48 h.
In the case of `O=C(Nc1ccc([N+](=O)[O-])cc1)c1cc2ccccc2cc1O`, the GI50 was 0.898 µM and the TGI turned out to be 4.74 µM.
As to `Clc1ccc2c(NCCN3CCN(c4ccnc(N5CCCC5)n4)CC3)ccnc2c1`, the GI50 was 2.05 µM and the TGI worked out at 5.09 µM.
The matching figures for `O=C(Nc1cccc(Cl)c1)Nc1nc2ccc([N+](=O)[O-])cc2o1`: 2.26 µM and 5.73 µM.
For the compound `Cc1sc2c(c1C)C(c1ccc(Cl)cc1)=N[C@@H](CC(=O)Nc1ccc(O)cc1)c1nnc(C)n1-2`, the GI50 was 0.212 µM and the TGI turned out to be 17.8 µM.
The matching figures for `CO[C@H]1/C=C/C[C@H](C)[C@@H](C)S(=O)(=O)NC(=O)c2ccc3c(c2)N(C[C@@H]2CC[C@H]21)C[C@@]1(CCCc2cc(Cl)ccc21)CO3`: 0.166 µM and 0.55 µM.
For `Cc1ccc2oc(=O)cc(C3c4ccc([nH]4)C(c4cc(=O)oc5ccc(C)cc45)c4ccc([nH]4)C(c4cc(=O)oc5ccc(C)cc45)c4ccc([nH]4)C(c4cc(=O)oc5ccc(C)cc45)c4ccc3[nH]4)c2c1` (stereo unspecified) the same measures were 0.0344 µM and 1.86 µM.
With `ClC1=C(Cl)C(Cl)=C(Cl)C1=Cc1ccc(Cl)cc1Cl`, the GI50 is 0.257 µM and the TGI came out at 0.728 µM.
In the case of `CO[C@@]12[C@H](COC(N)=O)C3=C(C(=O)C(C)=C(N)C3=O)N1C[C@@H]1N[C@@H]12`, the GI50 was 0.241 µM and 1.01 µM; the TGI is 1.3 µM and 4.9 µM.
With `c1cc(-c2cnn3nc(N4CCOCC4)ccc23)nc(NC2CC2)n1`, the GI50 is 6.8 µM and the TGI was 21 µM.
For `Cc1cc(Cl)ccc1Nc1nc(C(F)(F)F)ccc1C(=O)N/N=C/c1ccc(N(C)C)cc1` the same measures were 0.442 µM and 4.67 µM.
On to `CN(C)S(=O)(=O)c1cccc(-c2nc3sc4c(c3c(=O)[nH]2)CCCC4)c1`, for which the GI50 was 8.92 µM and the TGI is more than 100 µM.
For `CCCCCCCCCCC(CN(CC)CC)C(O)c1ccccc1` (stereo unspecified) the same measures were 1.52 µM and 3.21 µM.
For `CC(=O)O[C@@H]1C(=O)N(c2cnccn2)[C@H]1c1ccccc1[N+](=O)[O-]` the same measures were 0.376 µM and 4.05 µM.
Take `O=c1[nH]cc(F)c(=O)[nH]1`: the TGI is > 100 µM and 1560 µM.
Regarding `CN(C)CCN1C(=O)c2cccc3c(-c4ccc5ncn(C6CCCCC6)c5c4)ccc(c23)C1=O`, the GI50 is 1.74 µM and the TGI turned out to be 4.33 µM.
With `C=C1C(=O)O[C@H]2[C@H]1CC/C(COC(=O)NCc1cccc(OC)c1)=C\CC[C@@]1(C)O[C@@H]21`, the GI50 was 1.29 µM and the TGI was 3.84 µM.
For `CC1(C)CC(O)CCCCCCOc2c(CN)cccc2NC(=O)c2nc(cnc2N)-c2ccc(cc2)S1(=O)=O` (stereo unspecified), the GI50 was 0.49 µM and the TGI came to 2.45 µM.
The matching figures for `C#CCOc1cccc(Nc2ncnc3c2ncn3C2CCN(C(=O)CCl)C2)c1` (stereo unspecified): 19.8 µM and 41 µM.
Regarding `CCN1CCN(c2nc(C)cc(N(CCCNc3ccnc4cc(Cl)ccc34)Cc3ccco3)n2)CC1`, the GI50 was 2.2 µM and the TGI came to 5.28 µM.
For `CC(C)(C)n1cc(-c2ccnc(NCCCNS(=O)(=O)c3ccc(Cl)cc3)c2)c(-c2cccc(O)c2)n1` the same measures were 1.8 µM and 4.16 µM.
As to `O=C(NNc1nc2cc(F)cc(F)c2n2cccc12)c1cccnn1`, the GI50 was 0.638 µM and 0.219 µM; the TGI is 2.43 µM and 1.47 µM.
Regarding `C=C(C=O)[C@@H]1CC[C@]2(C(=O)O)CC[C@]3(C)C(CC[C@@H]4[C@@](C)(CCC#N)[C@H](C(=C)C=O)CC[C@]43C)[C@@H]12` (stereo partly specified), the GI50 is 2.31 µM and the TGI was 5.69 µM.
Turning to `COc1cc(/C=N/O)nc(-c2ccccn2)c1`, the GI50 is 0.307 µM and the TGI was found to be 1.7 µM.
For `COc1cc(C(=O)/C=C/c2c(-c3cccs3)nc3ccccn23)cc(OC)c1OC` the same measures were 1.72 µM and 3.4 µM.
Take `c1ccc([P+](CCC[P+](c2ccccc2)(c2ccccc2)c2ccccc2)(c2ccccc2)c2ccccc2)cc1`: the GI50 is 1.72 µM and the TGI was 26.3 µM.
`COc1cc(C2c3cc4c(cc3OC(N3CCOCC3)C2C)OCO4)cc(OC)c1OC` (stereo unspecified): the GI50 was 4.15 µM and the TGI is more than 100 µM.
Turning to `COc1ccc(Cn2cc3c(c2-c2ccccc2)CCc2cncnc2-3)cc1`, the GI50 is 3.25 µM and the TGI stood at 11 µM.
The matching figures for `CN1CCN(c2ccc([N+](=O)[O-])c3no[n+]([O-])c23)CC1`: 0.203 µM and 0.821 µM.
For `CCCCc1oc2ccccc2c1C(=O)c1cc(I)c(OCCN(CC)CC)c(I)c1` the same measures were 1.49 µM and 3.12 µM.
Turning to `COc1ccc(-c2cc3nccn3c(Nc3ncccc3C(N)=O)n2)cc1OC`, the GI50 is more than 100 µM and the TGI is more than 100 µM.
In the case of `COc1cc2c(cc1-c1c(C)noc1C)ncc1[nH]c(=O)n([C@H](C)c3ccccn3)c12`, the GI50 was 0.445 µM and the TGI is more than 36.8 µM.
The matching figures for `Cc1[nH]ccc2cc3nc4ccccc4c3cc12`: 1.91 µM and 9.09 µM.
The matching figures for `O=C(Nn1c2c(sc1=NC1CC1)C(=O)c1ccccc1C2=O)c1cc2ccc1CCc1ccc(cc1)CC2`: 2.55 µM and 7.32 µM.
Regarding `C[C@@H]1CCC2[C@@H](C)[C@H](OC(=O)CCC(=O)NCCNC(=O)Cc3cc(=O)oc4cc(N(C)C)ccc34)O[C@@H]3O[C@]4(C)CC[C@@H]1C23OO4` (stereo partly specified), the GI50 was 13.4 µM and the TGI came to 59.4 µM.
Regarding `Cc1ccc(C(=O)Nc2ccccc2C(=O)N/N=C(\c2ccccc2)c2ccccn2)cc1`, the GI50 was 0.266 µM and the TGI amounted to 2.94 µM.
For `O=C1C(Cl)=C(Nc2ccc3c(c2NC2=C(Cl)C(=O)c4ccccc4C2=O)C(=O)c2ccccc2C3=O)C(=O)c2ccccc21` the same measures were 1.35 µM and 3.85 µM.
Regarding `COc1cccc2cc(N(C)c3nc(C)nc4ccsc34)ccc12`, the GI50 is less than 0.01 µM.
On to `O=C1/C(=C/c2ccc(C(F)(F)F)cc2)COc2ccc(O)cc21`, for which the GI50 was 1.53 µM and the TGI was 3.04 µM.
The matching figures for `CCOC(=O)c1cn2ncnc(Oc3ccc(NC(=O)NCCN(CC)CC)c(Cl)c3)c2c1C`: 9.57 µM and 29 µM.
